Data from patent US5491155A, “Substituted thiadiazoles, compositions containing them and their use as antimicrobial and marine antifouling agents” (The Dow Chemical Company, priority 1994, dated 1996).
≈ marks a conversion by molar mass, not a printed value. Read-outs that look alike come from different tables or passages of the source.

What was measured:
Trichoderma viride = assay: MIC in malt yeast agar, Trichoderma viride; format: cell-based, Trichoderma viride (ATCC 8678); settings: Tv; malt yeast agar; 30° C.; 72 hours for fungi; read-out: Minimum Inhibitory Concentration (MIC)
Protocol: (§1) The minimum inhibitory concentration (MIC) for the compounds listed in Table I is determined for bacteria, using nutrient agar, and 7 yeast and fungi, using malt yeast agar. A one percent solution of the test compound is prepared in a mixture of acetone and water.
(§2) Malt yeast agar is prepared by adding 3 g yeast extract and 45 g malt agar per liter of deionized water. The specific agar is dispensed in 30 mL aliquots into 25×200 mm test tubes, capped and autoclaved for 15 minutes at 115° C.
(§3) The test tubes containing the agar are cooled in a water bath until the temperature of the agar is 48° C. Then, an appropriate amount of the one percent solution of the test compound is added (except in the controls where no compound is added) to the respective test tubes so that the final concentrations are 500, 250, 100, 50, 25, 10, 2.5, 1.0 and zero parts per million of the test compound in the agar, thus having a known concentration of test compound dispersed therein. The contents of the test tubes are then transferred to respective petri plates. After drying for 24 hours, the petri plates containing nutrient agar are inoculated with bacteria and those containing malt yeast agar are inoculated with yeast and fungi.
(§4) The inoculation with the yeast and fungi is accomplished as follows. Cultures of yeast and fungi are incubated for seven days on malt yeast agar at 30° C. These cultures are used to prepare suspensions by the following procedure. A suspension of each organism is prepared by adding 10 mL of sterile saline and 10 microliters of octylphenoxy polyethoxy ethanol to the agar slant of yeast or fungi. The sterile saline/octylphenoxy polyethoxy ethanol solution is then agitated with a sterile swab to suspend the microorganism grown on the slant. Each resulting suspension is diluted into sterile saline (1 part suspension: 9 parts sterile saline). Aliquots of these dilutions are placed in individual wells of Steer's Replicator and petri plates inoculated as previously described. The petri plates are incubated at 30° C. and read after 48 hours for yeast and 72 hours for fungi.
(§5) Table II lists the bacteria, yeast and fungi used in the MIC test described above along with their respective American Type Culture Collection (ATCC) identification numbers.
(§6) In Tables III and IV, the MIC values of the compounds described in Table I as compared to the MIC of a standard commercial preservative (with 1-(3-chloroalkyl)-3,5,7-triaza-1-azoniaadamantane chloride as the active agent and referred to in Tables III and IV as "STANDARD I") are set forth for the bacteria organisms and yeast/fungi organisms which are listed in Table II.

Aspergillus niger = assay: MIC in malt yeast agar, Aspergillus niger; format: cell-based, Aspergillus niger (ATCC 16404); settings: An; malt yeast agar; 30° C.; 72 hours for fungi; read-out: Minimum Inhibitory Concentration (MIC)
Protocol: as §1, §2, §3, §4, §5, §6

Salmonella choleraesuis = assay: MIC in nutrient agar, Salmonella choleraesuis; format: cell-based, Salmonella choleraesuis (ATCC 10708); settings: Salmonella enterica, Sc, 48 hours, read-out: Minimum Inhibitory Concentration (MIC)
Protocol: as §1
(§7) Nutrient agar is prepared at pH 6.8, representing a neutral medium, and at pH 8.2, representing an alkaline medium. The nutrient agars are prepared by adding 23 g of nutrient agar to one-liter of deionized water. In addition, the alkaline medium is prepared by adjusting a 0.04M solution of N-(tris-(hydroxymethyl)methyl)glycine buffered deionized water with concentrated sodium hydroxide to a pH of 8.5.
as §3
(§8) The inoculation with bacteria is accomplished by using the following procedure. Twenty-four hour-cultures of each of the bacteria are prepared by incubating the respective bacteria in tubes containing nutrient broth for 24 hours at 30° C. in a shaker. Dilutions of each of the 24 hour-cultures are made so that nine separate suspensions (one for each of the nine test bacteria) are made, each containing 10^8 colony forming units (CFU) per mL of suspension of a particular bacteria. Aliquots of 0.3 mL of each of the bacterial suspensions are used to fill the individual wells of Steer's Replicator. For each microbial suspension, 0.3 mL was used to fill three wells (i.e., three wells of 0.3 mL each) so that for the nine different bacteria, 27 wells are filled. The Steer's Replicator is then used to inoculate both the neutral and alkaline pH nutrient agar petri plates.
(§9) The inoculated petri plates are incubated at 30° C. for 48 hours and then read to determine if the test compound which is incorporated into the agar prevented growth of the respective bacteria.
as §5, §6

Staphylococcus aureus = assay: MIC in nutrient agar, Staphylococcus aureus; format: cell-based, Staphylococcus aureus (ATCC 6538); settings: Sa, 48 hours, read-out: Minimum Inhibitory Concentration (MIC)
Protocol: as §1, §7, §3, §8, §9, §5, §6

[1] = tested on: Pseudomonas aeruginosa (PRD-10); assay: MIC in nutrient agar, Pseudomonas aeruginosa (PRD-10); format: cell-based, Pseudomonas aeruginosa (ATCC 15442); settings: PRD, 48 hours, read-out: Minimum Inhibitory Concentration (MIC)
Protocol: as §1, §7, §3, §8, §9, §5, §6

Candida albicans = assay: MIC in malt yeast agar, Candida albicans; format: cell-based, Candida albicans (ATCC 10231); settings: Ca; malt yeast agar; 30° C.; 48 hours for yeast; read-out: Minimum Inhibitory Concentration (MIC)
Protocol: as §1, §2, §3, §4, §5, §6

Bacillus subtilis = assay: MIC in nutrient agar, Bacillus subtilis; format: cell-based, Bacillus subtilis (ATCC 8473); settings: Bs, 48 hours, read-out: Minimum Inhibitory Concentration (MIC)
Protocol: as §1, §7, §3, §8, §9, §5, §6

Escherichia coli = assay: MIC in nutrient agar, Escherichia coli; format: cell-based, Escherichia coli (ATCC 11229); settings: Ec, 48 hours, read-out: Minimum Inhibitory Concentration (MIC)
Protocol: as §1, §7, §3, §8, §9, §5, §6

Fusarium oxysporum = assay: MIC in malt yeast agar, Fusarium oxysporum; format: cell-based, Fusarium oxysporum (ATCC 48112); settings: Fo; malt yeast agar; 30° C.; 72 hours for fungi; read-out: Minimum Inhibitory Concentration (MIC)
Protocol: as §1, §2, §3, §4, §5, §6

Penicillium chrysogenum = assay: MIC in malt yeast agar, Penicillium chrysogenum; format: cell-based, Penicillium chrysogenum (ATCC 9480); settings: Pc; malt yeast agar; 30° C.; 72 hours for fungi; read-out: Minimum Inhibitory Concentration (MIC)
Protocol: as §1, §2, §3, §4, §5, §6

Pseudomonas aeruginosa = assay: MIC in nutrient agar, Pseudomonas aeruginosa (Pa); format: cell-based, Pseudomonas aeruginosa (ATCC 10145); settings: Pa, 48 hours, read-out: Minimum Inhibitory Concentration (MIC)
Protocol: as §1, §7, §3, §8, §9, §5, §6

Enterobacter aerogenes = assay: MIC in nutrient agar, Enterobacter aerogenes; format: cell-based, Enterobacter aerogenes (ATCC 13048); settings: Klebsiella aerogenes, Ea, 30° C., 48 hours, read-out: Minimum Inhibitory Concentration (MIC)
Protocol: as §1, §7, §3, §8, §9, §5, §6

Klebsiella pneumonias = assay: MIC in nutrient agar, Klebsiella pneumonias; format: cell-based, Klebsiella pneumonias (ATCC 8308); settings: Kp, 48 hours, read-out: Minimum Inhibitory Concentration (MIC)
Protocol: as §1, §7, §3, §8, §9, §5, §6

Row | SMILES | MIC (Trichoderma viride) [µg/mL] | MIC (Aspergillus niger) [µg/mL] | MIC (Salmonella choleraesuis; pH 6.8, 30° C.) [µg/mL] | MIC (Salmonella choleraesuis; pH 8.2, 30° C.) [µg/mL] | MIC (Staphylococcus aureus; pH 6.8, 30° C.) [µg/mL] | MIC (Staphylococcus aureus; pH 8.2, 30° C.) [µg/mL] | MIC ([1]; pH 6.8, 30° C.) [µg/mL] | MIC ([1]; pH 8.2, 30° C.) [µg/mL] | MIC (Candida albicans) [µg/mL] | MIC (Bacillus subtilis; pH 6.8, 30° C.) [µg/mL] | MIC (Bacillus subtilis; pH 8.2, 30° C.) [µg/mL] | MIC (Escherichia coli; pH 6.8, 30° C.) [µg/mL] | MIC (Escherichia coli; pH 8.2, 30° C.) [µg/mL] | MIC (Fusarium oxysporum) [µg/mL] | MIC (Penicillium chrysogenum) [µg/mL] | MIC (Pseudomonas aeruginosa; pH 6.8, 30° C.) [µg/mL] | MIC (Pseudomonas aeruginosa; pH 8.2, 30° C.) [µg/mL] | MIC (Enterobacter aerogenes; pH 6.8) [µg/mL] | MIC (Enterobacter aerogenes; pH 8.2) [µg/mL] | MIC (Klebsiella pneumonias; pH 6.8, 30° C.) [µg/mL] | other results
1 | N#CSCSc1nsnc1SCSC#N [Example 4, Bis(thiomethylthiocyanato)-1,2,5-thiadiazole] | 10 (≈ 34.2 µM) | < 2.5 | 25 (≈ 85.5 µM) | 25 (≈ 85.5 µM) | < 10 | < 10 | 25 (≈ 85.5 µM) | 25 (≈ 85.5 µM) | < 2.5 | < 10 | < 10 | 25 (≈ 85.5 µM) | < 10 | < 2.5 | < 2.5 | < 10 | < 10 | 25 (≈ 85.5 µM) | < 10 | < 10 | MIC (Klebsiella pneumonias; pH 8.2, 30° C.): < 10 µg/mL
2 | N#CSc1nsnc1SC#N [Example 2, Bis(thiocyanato)-1,2,5-thiadiazole] | 5 (≈ 25 µM) | < 1 | 25 (≈ 125 µM) | 100 (≈ 499 µM) | 25 (≈ 125 µM) | 100 (≈ 499 µM) | 25 (≈ 125 µM) | 250 (≈ 1250 µM) | < 1 | 25 (≈ 125 µM) | 100 (≈ 499 µM) | 25 (≈ 125 µM) | 50 (≈ 250 µM) | 2.5 (≈ 12.5 µM) | < 1 | 50 (≈ 250 µM) | 250 (≈ 1250 µM) | 25 (≈ 125 µM) | 100 (≈ 499 µM) | 25 (≈ 125 µM) | MIC (Klebsiella pneumonias; pH 8.2, 30° C.): 250 µg/mL (≈ 1250 µM)
